This is an account of results in patent US9890176B2, “Mannose derivatives for treating bacterial infections” (Vertex Pharmaceuticals Incorporated, priority 2013, dated 2018).

As usually defined, the IC50 is the concentration that inhibits the measured activity by half.

The test system of the test is bacterial strain LF82 binding to the glycoprotein BSA-(Mannose)3. Nature of the test: Bacterial Binding Assay (BBA). Format: cell-based, Escherichia coli. The note with it: read-out: Bacterial Binding Assay IC50. An excerpt: The purpose of the Bacterial Binding Assay (BBA) is to determine the inhibition activity of selective FimH antagonists on the bacterial strain LF82 binding to the glycoprotein BSA-(Mannose)3.
Below is a list of the Materials used to run the BBA are described below. • 1. LB broth: Supplier: Gibco, #10855 • 2. D-PBS: Supplier: Wisent, #311-425-CL • 3. LB agar plates • 4. 96-well black plate (high binding): Supplier: Costar, #3925 • 5. TopSeal™-A adhesive sealing films; Supplier PerkinElmer, #6005185 • 6. Carbonate-bicarbonate buffer pH 9.6 tablets, Supplier: Medicago, #09-8922-24 • 7. Water, Supplier: Gibco, #15230-162 • 8. Bovine serum albumin (BSA): Supplier: Sigma, #A-7888 • 9. (Man)-3-BSA (α1-3, α1-6 Mannotriose-BSA, 1 mg), V-Labs, #NGP1336, lot#HGDX37-169-1 • 10. Tween 20: Supplier: Sigma, #P9416 • 11. Bright-Glo Luciferase Assay System: Supplier: Promega, #E2610 • 12. LF82/Luciferase strain: Invasive ability of an Escherichia coli strain isolated from the ileal mucosa of a patient with Crohn's disease. Boudeau J, Glasser A L, Masseret E, Joly B, Darfeuille-Michaud A, Infect Immun. 1999, 67(9), 4499-509
Solutions and buffers used to run the BBA are described below. • 1. 0.04M carbonate-bicarbonate buffer (coating buffer) • 2. […] 1 mg of (Man)-3-BSA in 25 mL of water. • 3. 4000 ng/mL BSA • 4. 40 ng/mL BSA • 5. 1 μg/mL BSA-(Man)3: 150 μL of 40 ng/mL BSA-(Man)3+5.85 mL of 40 ng/mL BSA • 6. 0.5 μg/mL BSA-(Man)3 in 0.02M carbonate-bicarbonate buffer. • 7. 20 ng/mL BSA in 0.02M carbonate-bicarbonate buffer • 8. Blocking buffer (2% BSA/DPBS): 1 g of BSA in 50 mL D-PBS • 9. 2× binding buffer (0.2% BSA/D-PBS): 5 mL of blocking buffer+45 mL D-PBS. • 10. Washing buffer (D-PBS/0.01% Tween 20): 10 μL of Tween 20 in 100 mL D-PBS. • 11. 1× Bright-Glo Luciferase substrate:Dilute 1:1 the Bright-Glo Luciferase Assay System with D-PBS The experimental protocol to run the BBA is described below.
Overnight culture of LF82/Luciferase strain: Into two Falcon 50 mL tubes, add 20 mL of LB+20 μL of 50 mg/mL Kanamycin and inoculate with a loop from glycerol stock of the LF82/Luciferase strain. Incubate overnight at 37° C. with no shaking.
Glycoprotein coating of 96-well plates: Add 100 μL/well of 0.5-2 μg/mL BSA-(Man)3. 20 μg/mL BSA is used as the control background. Seal plate using an adhesive sealing film and incubate overnight at room temperature. Wash the 96-well plate three times with 150 μL/well of D-PBS, add 170 μL/well of blocking solution and incubate 45 min (minimum) at room temperature.
Preparation of bacterial suspension: Mix the two cultures tubes (40 mL) and perform a 1:10 dilution in LB (900 μl LB+100 μl culture. Measure optical density (OD) of the bacterial cultures. OD1 ˜5×10^8 cells/mL. Centrifuge LF82 culture for 20 min at 3500 rpm at room temperature. Re-suspend bacterial pellet in D-PBS and centrifuge again for 20 min at 3500 rpm. Re-suspend bacterial pellet in D-PBS to obtain a bacterial concentration of 2×10^9 bacteria/mL. Dilute 1/10 in D-PBS to obtain a final bacterial concentration of 2×10^8 bacteria/mL (=107 bacteria/50 μL). Perform 1/10 serial dilutions in LB of each bacterial suspension, plate 10 μL of dilutions on LB agar plates (final dilutions of 10^−7) and incubate overnight at 37° C. and count CFUs to determine the actual bacteria density in the assay.
Bacterial binding assay: Add 147 μL 2× binding buffer to compound plate (containing 3 μL of compound). After blocking step is performed (at least 45 min), wash plates three times with 200 μL/well of D-PBS. With a 100 μL multichannel manual pipettor, add 50 μL/well of compound diluted in 2× binding buffer. With a 100 μL multichannel manual pipettor, add 50 μL/well of bacterial suspension. Agitate at slow speed for 1 min and incubate 40-75 min at room temperature. Wash 5 times with 150 μL/well of washing buffer and then once with D-PBS. Add 100 μL/well of 1× Bright-Glo Luciferase substrate. […]
On to `CNC(=O)c1cccc(-c2ccc(O[C@H]3O[C@H](CO)[C@@H](O)[C@H](O)[C@]3(C)O)c(Cl)c2)c1` [Example 15, 3-[3-chloro-4-[(2R,3S,4S,5S,6R)-3,4,5-trihydroxy-6-(hydroxymethyl)-3-methyl-tetrahydropyran-2-yl]oxy-phenyl]-N-methyl-benzamide], for which the IC50 amounted to 0.013 ± 0.002 µM.
To `CNC(=O)c1cccc(-c2ccc(O[C@H]3O[C@H](CO)[C@@H](O)[C@H](O)[C@]3(C)O)c(F)c2)c1` [Example 16, 3-[3-fluoro-4-[(2R,3S,4S,5S,6R)-3,4,5-trihydroxy-6-(hydroxymethyl)-3-methyl-tetrahydropyran-2-yl]oxy-phenyl]-N-methyl-benzamide] belongs 0.067 ± 0.018 µM.
To `CNC(=O)c1cccc(-c2ccc(O[C@H]3O[C@H](CO)[C@@H](O)[C@H](O)[C@]3(C)O)c(OC)c2)c1` [Example 17, 3-[3-methoxy-4-[(2R,3S,4S,5S,6R)-3,4,5-trihydroxy-6-(hydroxymethyl)-3-methyl-tetrahydropyran-2-yl]oxy-phenyl]-N-methyl-benzamide] belongs 0.027 ± 0.008 µM; to `Cc1cc(-c2cccc([N+](=O)[O-])c2)ccc1O[C@H]1O[C@H](CO)[C@@H](O)[C@H](O)[C@]1(C)O` [Example 18, (2R,3S,4S,5S,6R)-6-(hydroxymethyl)-3-methyl-2-[2-methyl-4-(3-nitrophenyl)phenoxy]tetrahydropyran-3,4,5-triol], 0.013 ± 0.003 µM.
The result for `C[C@@]1(O)[C@@H](Oc2ccc(N3CCc4cc([N+](=O)[O-])ccc43)cc2Cl)O[C@H](CO)[C@@H](O)[C@@H]1O` [Example 19, (2R,3S,4S,5S,6R)-2-(2-chloro-4-(5-nitroindolin-1-yl)phenoxy)-6-(hydroxymethyl)-3-methyltetrahydro-2H-pyran-3,4,5-triol] reads 0.013 ± 0.006 µM; that for `C[C@@]1(O)[C@@H](Oc2ccc(-c3ccc(O[C@H]4O[C@H](CO)[C@@H](O)[C@H](O)[C@]4(C)O)cc3)cc2)O[C@H](CO)[C@@H](O)[C@@H]1O` [Example 106, (2R,3S,4S,5S,6R)-6-(hydroxymethyl)-3-methyl-2-[4-[4-[(2R,3S,4S,5S,6R)-3,4,5-trihydroxy-6-(hydroxymethyl)-3-methyl-tetrahydropyran-2-yl]oxyphenyl]phenoxy]tetrahydropyran-3,4,5-triol], 0.435 ± 0.115 µM.
On to `C[C@@]1(O)[C@@H](Oc2ccc(-c3ccc(O[C@H]4O[C@H](CO)[C@@H](O)[C@H](O)[C@]4(C)O)c(Cl)c3)cc2Cl)O[C@H](CO)[C@@H](O)[C@@H]1O` [Example 107, (2R,3S,4S,5S,6R)-2-[2-chloro-4-[3-chloro-4-[(2R,3S,4S,5S,6R)-3,4,5-trihydroxy-6-(hydroxymethyl)-3-methyl-tetrahydropyran-2-yl]oxy-phenyl]phenoxy]-6-(hydroxymethyl)-3-methyl-tetrahydropyran-3,4,5-triol], for which the IC50 came out at 0.005 ± 0.001 µM.
`C[C@@]1(O)[C@@H](Oc2ccc3ccc(O[C@H]4O[C@H](CO)[C@@H](O)[C@H](O)[C@]4(C)O)cc3c2)O[C@H](CO)[C@@H](O)[C@@H]1O` [Example 108, (2R,3S,4S,5S,6R)-6-(hydroxymethyl)-3-methyl-2-[[7-[(2R,3S,4S,5S,6R)-3,4,5-trihydroxy-6-(hydroxymethyl)-3-methyl-tetrahydropyran-2-yl]oxy-2-naphthyl]oxy]tetrahydropyran-3,4,5-triol]: the IC50 came to 0.158 ± 0.061 µM.
The result for `COc1cc(-c2ccc(O[C@H]3O[C@H](CO)[C@@H](O)[C@H](O)[C@]3(C)O)c(OC)c2)ccc1O[C@H]1O[C@H](CO)[C@@H](O)[C@H](O)[C@]1(C)O` [Example 109, (2R,3S,4S,5S,6R)-6-(hydroxymethyl)-2-[2-methoxy-4-[3-methoxy-4-[(2R,3S,4S,5S,6R)-3,4,5-trihydroxy-6-(hydroxymethyl)-3-methyl-tetrahydropyran-2-yl]oxy-phenyl]phenoxy]-3-methyl-tetrahydropyran-3,4,5-triol] reads 0.008 ± 0.004 µM.
The result for `CCc1cc(-c2ccc(O[C@H]3O[C@H](CO)[C@@H](O)[C@H](O)[C@]3(C)O)c(CC)c2)ccc1O[C@H]1O[C@H](CO)[C@@H](O)[C@H](O)[C@]1(C)O` [Example 110, (2R,3S,4S,5S,6R)-2-[2-ethyl-4-[3-ethyl-4-[(2R,3S,4S,5S,6R)-3,4,5-trihydroxy-6-(hydroxymethyl)-3-methyl-tetrahydropyran-2-yl]oxy-phenyl]phenoxy]-6-(hydroxymethyl)-3-methyl-tetrahydropyran-3,4,5-triol] reads 0.003 ± 0.001 µM.
To `C[C@@]1(O)[C@@H](Oc2ccc(-c3ccc(O[C@H]4O[C@H](CO)[C@@H](O)[C@H](O)[C@]4(C)O)c(C#N)c3)cc2C#N)O[C@H](CO)[C@@H](O)[C@@H]1O` [Example 111, 5-[3-cyano-4-[(2R,3S,4S,5S,6R)-3,4,5-trihydroxy-6-(hydroxymethyl)-3-methyl-tetrahydropyran-2-yl]oxy-phenyl]-2-[(2R,3S,4S,5S,6R)-3,4,5-trihydroxy-6-(hydroxymethyl)-3-methyl-tetrahydropyran-2-yl]oxy-benzonitrile] belongs 0.006 ± 0.002 µM.
With `C[C@@]1(O)[C@@H](Oc2ccc(-c3ccc(O[C@H]4O[C@H](CO)[C@@H](O)[C@H](O)[C@]4(C)O)c(F)c3)cc2F)O[C@H](CO)[C@@H](O)[C@@H]1O` [Example 112, (2R,3S,4S,5S,6R)-2-[2-fluoro-4-[3-fluoro-4-[(2R,3S,4S,5S,6R)-3,4,5-trihydroxy-6-(hydroxymethyl)-3-methyl-tetrahydropyran-2-yl]oxy-phenyl]phenoxy]-6-(hydroxymethyl)-3-methyl-tetrahydropyran-3,4,5-triol], the IC50 turned out to be 0.068 ± 0.011 µM.
To `Cc1ccc(-c2ccc(C)c(O[C@H]3O[C@H](CO)[C@@H](O)[C@H](O)[C@]3(C)O)c2)cc1O[C@H]1O[C@H](CO)[C@@H](O)[C@H](O)[C@]1(C)O` [Example 113, (2R,3S,4S,5S,6R)-6-(hydroxymethyl)-3-methyl-2-[2-methyl-5-[4-methyl-3-[(2R,3S,4S,5S,6R)-3,4,5-trihydroxy-6-(hydroxymethyl)-3-methyl-tetrahydropyran-2-yl]oxy-phenyl]phenoxy]tetrahydropyran-3,4,5-triol] belongs 0.015 ± 0.011 µM.
The result for `C[C@@]1(O)[C@@H](Oc2ccc(-c3ccc(O[C@H]4O[C@H](CO)[C@@H](O)[C@H](O)[C@]4(C)O)c(OC(F)(F)F)c3)cc2OC(F)(F)F)O[C@H](CO)[C@@H](O)[C@@H]1O` [Example 114, (2R,3S,4S,5S,6R)-6-(hydroxymethyl)-3-methyl-2-[2-(trifluoromethoxy)-4-[3-(trifluoromethoxy)-4-[(2R,3S,4S,5S,6R)-3,4,5-trihydroxy-6-(hydroxymethyl)-3-methyl-tetrahydropyran-2-yl]oxy-phenyl]phenoxy]tetrahydropyran-3,4,5-triol] reads 0.001 ± 0.001 µM.
